Measurements from US10785976B2, “Methods and compositions for environmentally friendly pest control” (BAYER CROPSCIENCE LP, priority 2016, dated 2020).
Counter-ions that a name gives are not always drawn.

Test system: Aedes aegypti
Experiment: Direct spray treatment (pump-sprayer), knock down and/or mortality
Format: in vivo
Description: The efficacy of a non-VOC solvent formulation of the invention was evaluated using a pump-sprayer against Culex quinquefasciatus and Aedes aegypti. The non-VOC solvent formulation of the invention comprising acetyl tributyl citrate (Formulation 1) was applied at a concentration of either 15.75 mg/ml or 31.5 mg/ml from a distance of approximately 15 cm. Controls were sprayed with water. The experiment was replicated five times and ten insects were sprayed per replicate.
Percentage knock-down and/or mortality was determined at three time points: 30 minutes following treatment; 1 hour following treatment; and 24 hours following treatment. The findings are presented below in Tables 4 and 5.
Further studies were conducted using acetyl tributyl citrate as described in Table 6.

Measured: % knock down and/or mortality of Aedes aegypti (out of 10 per replicate) after direct spray treatment

CCCCOC(=O)CC(CC(=O)OCCCC)(OC(C)=O)C(=O)OCCCC [Citroflex A-4, acetyl tributyl citrate]
100%: Many spray pushes pure Citroflex A4 (1 ml), 1 hour | Many spray pushes pure Citroflex A4 (1 ml), 24 hour mortality | One spray push Citroflex 1:1 with tap water, 1 hour | One spray push Citroflex 1:1 with tap water, 24 hour mortality | One spray push pure Citroflex A4 (1 ml), 1 hour | One spray push pure Citroflex A4 (1 ml), 24 hour mortality
